# Results as given in patent US7439253B2, “Heterocyclic compounds, their preparation and their use as medicaments, in particular as antibacterials and beta-lactamase inhibitors” (Novexel, priority 2002, dated 2008).
# Structures can show the parent of a compound that is named as a salt. Where two headings read alike, the source gives them in different places.
# How the values were obtained:
# [1] = molecular target: T1, β-lactamase TEM1 (Escherichia coli, UniProt P62593); experiment: β-lactamase inhibiting activity (Nitrocefin hydrolysis); assay type: biochemical, E. coli 250HT21
# T1 construct: The β-lactamases are isolated from bacterial strains resistant to penicillins and to cephalosporins; endogenous in cells; host or cells: E. coli 250HT21 (soluble fraction of French-press lysate, 100 000 G supernatant)
# T1 sequence (P62593 24-286 limits assumed): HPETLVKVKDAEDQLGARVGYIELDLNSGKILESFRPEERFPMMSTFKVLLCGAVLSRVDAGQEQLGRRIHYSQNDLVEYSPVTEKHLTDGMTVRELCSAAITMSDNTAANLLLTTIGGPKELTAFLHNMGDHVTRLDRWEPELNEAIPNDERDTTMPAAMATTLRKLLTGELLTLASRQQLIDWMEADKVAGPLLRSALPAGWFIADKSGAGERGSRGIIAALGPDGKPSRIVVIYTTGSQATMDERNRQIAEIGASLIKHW
# Procedure: (§1) A. Preparation of the β-lactamases Tem˜1 and P99
# (§2) The β-lactamases are isolated from bacterial strains resistant to penicillins and to cephalosporins (Tem1 and P99 are produced by E. coli 250HT21 and E. Cloacae 293HT6, respectively).
# (§3) The bacteria are cultured in heart-brain broth at 37 g/l (DIFCO), at 37° C. They are harvested at the end of the exponential phase, cooled and centrifuged. The bacterial pellets are taken up in 50 mM sodium phosphate buffer pH 7.0 and again centrifuged. The bacteria are taken up in two volumes of this same buffer and lyzed by means of a French-Press kept at 4° C. After centrifugation for 1 h at 100 000 G, at 4° C., the supernatants containing the soluble fraction of the bacterial extracts are recovered and frozen at −80° C.
# (§4) B. Determination of the β-lactamase Activity
# (§5) The method uses, as substrate, Nitrocefin (OXOID), a chromogenic cephalosporin, whose product of hydrolysis by Beta-lactamases is red and absorbs at 485 nm. The β-lactamase activity is kinetically determined by measuring the variation in absorbance at 485 nm resulting from the hydrolysis of the substrate on a plate spectrophotometer (Spectra Max Plus from Molecular Devices). The experiments are performed at 37° C. The quantity of enzyme was normalized and the measurements are performed at the initial speed.
# (§6) C. Determination of the β-lactamase Inhibiting Activity
# (§7) Two measurements are carried out, without preincubation and with preincubation of the enzyme and of the inhibitor (5 min), in order to test the irreversibility of the reaction. The products are tested at 6 or 8 concentrations in duplicate. The reaction mixture contains 100 μM of Nitrocefin and 50 mM sodium phosphate buffer pH 7.0. D. Calculations of the IC50 Values
# (§8) The rates of hydrolysis are measured with and without inhibitor. The concentration of inhibitor which inhibits by 50% the reaction of hydrolysis of Nitrocefin by the enzyme (IC50) is determined. The data processing is carried out with the aid of the GraFit software (Erathycus Software).
# [2] = molecular target: T2, β-lactamase P99 (Enterobacter cloacae, UniProt P05364); experiment: biochemical; assay type: biochemical
# T2 construct: The β-lactamases are isolated from bacterial strains resistant to penicillins and to cephalosporins; endogenous in cells; host or cells: E. cloacae 293HT6 (soluble fraction of French-press lysate, 100 000 G supernatant)
# T2 sequence (P05364 21-381): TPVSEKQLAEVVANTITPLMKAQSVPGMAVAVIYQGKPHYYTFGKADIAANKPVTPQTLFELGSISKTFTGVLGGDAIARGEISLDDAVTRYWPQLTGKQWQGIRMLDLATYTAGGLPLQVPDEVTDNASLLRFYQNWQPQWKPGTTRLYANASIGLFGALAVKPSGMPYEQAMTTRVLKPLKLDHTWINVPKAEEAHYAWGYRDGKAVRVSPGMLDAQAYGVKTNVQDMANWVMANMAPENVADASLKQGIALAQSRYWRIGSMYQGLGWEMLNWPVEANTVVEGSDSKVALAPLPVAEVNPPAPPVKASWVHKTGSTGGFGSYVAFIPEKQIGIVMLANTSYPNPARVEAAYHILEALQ
# Procedure: as §1, §2, §3, §4, §5, §6, §7, §8
# [3] = 100 μM Nitrocefin, 50 mM sodium phosphate buffer pH 7.0, 37° C.
# [4] = 100 μM Nitrocefin, 50 mM sodium phosphate buffer pH 7.0, 37° C., read-out: IC50 nM/TEM1
Compound,IC50 [1],"IC50 [2, 3]","IC50 [1, 4]",IC50 ([2]; pH 7)
"CC1(C)OCC(COc2ccc3c(c2)C2CN(C(=O)N2OS(=O)(=O)O)C3C(N)=O)O1 (stereo not drawn) [Example 42, Sodium Salt of trans-8-[(2,2-dimethyl-1,3-dioxolan-4-yl)methoxy]-1,2,3,5-tetrahydro-3-oxo-2-(sulfoxy)-1,4-methano-4H-2,4-benzodiazepine-5-carboxamide]",15 nM,44 nM,–,–
"COc1ccc(Cn2ncc3c2CN2CC3N(OS(=O)(=O)O)C2=O)cc1 (stereo not drawn) [Example 18, Sodium Salt of 1,4,5,8-tetrahydro-1-[(4-methoxyphenyl)methyl]-5-(sulfoxy)-6H-4,7-methanopyrazolo[3,4-e][1,3]diazepin-6-one]",–,13 nM,5 nM,–
"CCc1ccccc1-c1cc2c(s1)[C@@H](C(N)=O)N1C[C@H]2N(OS(=O)(=O)O)C1=O (relative stereo) [Example 26, Sodium Salt of Trans-2-(2-ethylphenyl)-4,5,6,8-tetrahydro-6-oxo-5-(sulfoxy)-4,7-methano-7H-thieno[2,3-e][1,3]diazepine-8-carboxamide]",–,6 nM,1 nM,–
"CCOC(=O)[C@@H]1c2c(-c3ccc(F)cc3)csc2[C@H]2CN1C(=O)N2OS(=O)(=O)O (relative stereo) [Example 44, Sodium Salt of ethyl trans-3-(4-fluorophenyl)-4,6,7,8-tetrahydro-6-oxo-7-(sulfoxy)-5,8-methano-5H-thieno[2,3-e][1,3]diazepine-4-carboxylate]",–,–,34 nM,2 nM
"COC(=O)[C@@H]1c2nn(CC(=O)O)cc2[C@H]2CN1C(=O)N2OS(=O)(=O)O (relative stereo) [Example 9, Di(triethylammonium) Salt of Trans-5,6-dihydro-8-(methoxycarbonyl)-6-oxo-5-sulfoxy-4H-4,7-methanopyrazolo[3,4-e][1,3]diazepine-2(8H)-acetic acid]",–,50 nM,60 nM,–
"COC(=O)[C@@H]1c2nn(CCc3ccccc3)cc2[C@H]2CN1C(=O)N2OS(=O)(=O)O (relative stereo) [Example 3, Triethylammonium Salt of Methyl trans-2,5,6,8-tetrahydro-6-oxo-2-(2-phenylethyl)-5-(sulfoxy)-4H-4,7-methanopyrazolo[3,4-e][1,3]diazepine-8-carboxylate]",–,11 nM,2 nM,–
